Experimental data as given in patent US20170326232A1, “INTRATUMORAL ADMINISTRATION OF PARTICLES CONTAINING A TOLL-LIKE RECEPTOR 9 AGONIST AND A TUMOR ANTIGEN FOR TREATING CANCER” (Dynavax Technologies Corporation, priority 2016, published 2017).
“And” between values parts separate entries of the source, which are not always exact repeats. Equal values may be shown once. Read-outs that look alike come from different tables or passages of the source. Square brackets hold non-standard residues; d marks the D form. Ends that are not written are not given here. PEG24 = NCCOCCOCCOCCOCCOCCOCCOCCOCCOCCOCCOCCOCCOCCOCCOCCOCCOCCOCCOCCOCCOCCOCCOCCOCCC(=O)O; Cha = N[C@@H](CC1CCCCC1)C(=O)O

Assays:
Type in all cases: physicochemical
[1] = Adsorption of CpG-ODN to aluminum hydroxide, quantified by UV absorbance at 260 nm; conditions: for % D61-04 Bound: Al(OH)3 1.0 mg; for D61-01 binding: co-adsorption with AH1 CII peptide
[2] = Solubilization of peptide antigens in buffers and organic solvents (visual assessment); set-up: key to Qualitative Solubility score: 1 = fully soluble/clarity similar to water; 2 = partially soluble; 3 = insoluble
[3] = Adsorption of peptide antigens to aluminum hydroxide, quantified by UV, amino acid analysis or RP-HPLC; conditions: RP-HPLC at 215 nm
[4] = 10 mM NaOAc, 150 mM NaCl, pH 7.0
[5] = input 0.25 mg to 1 mg aluminum hydroxide, pH 7.0
[6] = input 0.50 mg to 1 mg aluminum hydroxide, pH 7.0
[7] = input 1.0 mg to 1 mg aluminum hydroxide, pH 7.0
[8] = input 1.5 mg to 1 mg aluminum hydroxide, pH 7.0

For “5′-TCGAACGTTCGAACGTTCGAACGTTCGAAT-3′ (DNA TCGAACGTTCGAACGTTCGAACGTTCGAAT; DNA, all phosphorothioate, methylation of C not given here) [D61-04]”, the “maximum bound by 1 mg of aluminum hydroxide” value [1, 4] was 1.1 mg, the Binding efficiency [1, 5] was 100% and the Bound [1, 5] was 0.25 mg. For the same substance, the Binding efficiency [1, 6] was 100%, the Bound [1, 6] was 0.50 mg and the Binding efficiency [1, 7] was 89%. It also gave a Bound [1, 7] of 0.89 mg, a Binding efficiency [1, 8] of 73% and a Bound [1, 8] of 1.1 mg. For the same substance, the “% D61-04 Bound” value ([1]; pH 6.5, D61-04 input 1.0 mg) was 92%, the “% D61-04 Bound” value ([1]; pH 6.5, D61-04 input 1.5 mg) was 78% and the “% D61-04 Bound” value ([1]; pH 6.5, D61-04 input 2.0 mg) was 63%. The “% D61-04 Bound” value ([1]; pH 7.0, D61-04 input 1.0 mg) was 91%, the “% D61-04 Bound” value ([1]; pH 7.0, D61-04 input 1.5 mg) was 73% and the “% D61-04 Bound” value ([1]; pH 7.0, D61-04 input 2.0 mg) was 61%. The “% D61-04 Bound” value ([1]; pH 7.5, D61-04 input 1.0 mg) was 92%, the “% D61-04 Bound” value ([1]; pH 7.5, D61-04 input 1.5 mg) was 74% and the “% D61-04 Bound” value ([1]; pH 7.5, D61-04 input 2.0 mg) was 60%.

For “5′-TCGGCGC-3′-HEG-5′-AACGTTC-3′-HEG-5′-TCGGCGC-3′ (DNA TCGGCGCAACGTTCTCGGCGC; HEG spacers, phosphorothioate linkages, chemistry not fully specified) [D61-01]”, the “maximum bound by 1 mg of aluminum hydroxide” value [1, 4] was 1.0 mg, the “D61-01 Binding efficiency” value ([1]; 10 mM NaOAc, 150 mM NaCl, pH 7.0, Table S3-1) was 71-100% and the D61-01 binding ([1]; 2.5 mg of aluminum) was 86%. The D61-01 binding ([1]; four out of five conditions) was 100%, the D61-01 binding efficiencies ([1]; co-adsorption with HPV16 peptide, two reactions) was 74% and 80% and the Binding efficiency [1, 5] was 100%. For the same substance, the Bound [1, 5] was 0.25 mg, the Binding efficiency [1, 6] was 100% and the Bound [1, 6] was 0.50 mg. For the same substance, the Binding efficiency [1, 7] was 99%, the Bound [1, 7] was 0.99 mg and the Binding efficiency [1, 8] was 65%. For the same substance, the Bound [1, 8] was 0.97 mg.

For “CSGLEQLESIINFEKLTEWTSSNVMEERKIKV [OVApep]”, the solubility ([2]; 0.1 M sodium bicarbonate buffer, 0.1 M sodium bicarbonate, pH 8 buffer, read-out: solubility) was 2000 to 4000 µg/mL and the solubility ([2]; water, PBS or sodium acetate (NaOAc) buffers) was “not appreciably soluble”.

In the case of “HRQLQLSISSCLQQLSLLMWITQCFLPVFLAQ [NY-ESO-1142-173 OLP]”, the “Qualitative Solubility score” value ([2]; Acetic acid) is reported as 1, the “Visual Appearance” value ([2]; Acetic acid) is reported as “clear” and the “Qualitative Solubility score” value ([2]; Acetone) is reported as 1. For the same substance, the “Visual Appearance” value ([2]; Acetone) was “clear”, the “Qualitative Solubility score” value ([2]; Ethanol) was 1 and the “Visual Appearance” value ([2]; Ethanol) was “clear”. For the same substance, the “Qualitative Solubility score” value ([2]; Formic acid) was 1, the “Visual Appearance” value ([2]; Formic acid) was “clear” and the “Qualitative Solubility score” value ([2]; Isoamyl alcohol) was 3. The “Visual Appearance” value ([2]; Isoamyl alcohol) was “hazy”, the “Qualitative Solubility score” value ([2]; Isopropyl acetate) was 3 and the “Visual Appearance” value ([2]; Isopropyl acetate) was “hazy/insoluble”. The “Qualitative Solubility score” value ([2]; Methyl acetate) was 3, the “Visual Appearance” value ([2]; Methyl acetate) was “hazy/insoluble” and the “Qualitative Solubility score” value ([2]; n-Butyl acetate) was 3. The “Visual Appearance” value ([2]; n-Butyl acetate) was “hazy/insoluble”, the “solubility after dilution of solvent” value ([2]; six solvents diluted to 20% solvent/80% water (v/v), data not shown) was “remained visually soluble” and the “(%) binding efficiency to aluminum hydroxide” value (shortened to “(%) binding efficiency”) ([3]; 2-Butanol) was 100%. The “(%) binding efficiency” value ([3]; Acetic acid) was 100%, the “(%) binding efficiency” value ([3]; Acetone) was 100% and the “(%) binding efficiency” value ([3]; Ethanol) was 100%. For the same substance, the “(%) binding efficiency” value ([3]; Formic acid) was 100% and the “(%) binding efficiency” value ([3]; Isopropyl alcohol) was 100%.

In the case of “[PEG24]VGALEGPRNQDWLAK[Cha]VAAWTLKAAATAYRYHLLSSVYDFFVWLSC [Triple, PEG24-VGALEGPRNQDWLAKXVAAWTLKAAATAYRYHLLSSVYDFFVWLSC wherein X = L-cyclohexylalanine]”, the solubility ([2]; 0.1 M sodium bicarbonate pH 8 buffer, water, PBS, sodium bicarbonate or NaOAc buffers) is reported as “not appreciably soluble” and the solubility ([2]; 6M guanidine hydrochloride pH 8.5 or 20% IPA/water (v/v), read-out: solubility) is reported as 1000 to 5000 µg/mL.
